This note sets out measurements from patent US20030198617A1, “Pharmaceutical tryptophan containing dipeptide compositions and methods of use thereof” (priority 1993, published 2003).

Assay [1] concerns methicillin-resistant Staphylococcal aureus. The conditions noted are these: 5 test animals.
Another assay concerns Staphylococci. In words: Antibiotic-sensitivity of staphylococci from skin lesions (MIC, series cultivation). Format: cell-based. An excerpt:
Staphylococci extracted from dermal lesions were initially sensitive to 10 of the 15 antibiotics being assayed (Table 25).

Assay [2] concerns Mycobacterium tuberculosis. The conditions noted are these: in vivo.
The mark [3] stands for this setting: staphylococci from patients After IM862.
The mark [4] stands for this setting: staphylococci from patients Before IM862.

Where two headings read alike, the source gives them in different places. Marks after values point to notes of the source that are not given here.

Consider `CC1(C)S[C@@H]2[C@H](NC(=O)[C@H](N)c3ccccc3)C(=O)N2[C@H]1C(=O)O` [Ampicillin, reference compound], for which the Survivors result is on record as “no survivors” in assay [1] (100 mg/kg Ampicillin, pre-treated with normal saline i.p.) and 0 in assay [1] (Group 1: IM862 control (0) pretreatment, ampicillin 100 mg/kg 1 hr after inoculation, survivors at 72 hours). Further, the “Percent ip Survivors” value in assay [1] (Group 1: IM862 control (0) pretreatment, ampicillin 100 mg/kg 1 hr after inoculation, 72 hours) is 0%. In addition, the MIC g/ml is on record as 2.64 ± 0.60^yy g/ml with Staphylococci (setting [3]) and 8.10 ± 0.49^x g/ml against Staphylococci (setting [4]).
In the case of `Cc1nnc(SCC2=C(C(=O)O)N3C(=O)[C@@H](NC(=O)Cn4cnnn4)[C@H]3SC2)s1` [Cefamezin], the MIC g/ml in the assay on Staphylococci (setting [3]) is on record as 1.33 ± 0.53^yy g/ml.
Consider `NC[C@H]1O[C@H](O[C@H]2[C@H](O)[C@@H](O[C@H]3O[C@H](CO)[C@@H](O)[C@H](N)[C@H]3O)[C@H](N)C[C@@H]2N)[C@H](O)[C@@H](O)[C@@H]1O` [Kanamycin], for which the figures for the MIC g/ml against Staphylococci (setting [3]) and with Staphylococci (setting [4]) were 2.09 ± 0.54^yy g/ml and 6.32 ± 0.58^x g/ml, respectively.
On to `CC(=O)OCC1=C(C(=O)O)N2C(=O)[C@@H](NC(=O)Cc3cccs3)[C@H]2SC1` [Keflin], for which, in the assay with Staphylococci (setting [3]), the MIC g/ml was 1. ± 0.69^y g/ml.
Still for that read-out and setting: as for `Cc1nnc(SCC2=C(C(=O)O)N3C(=O)[C@@H](NC(=O)Cn4cnnn4)[C@H]3SC2)s1` [Kefzol], the figure is 1.86 ± 0.93^y g/ml.
Regarding `O=C(N[C@H](CO)[C@H](O)c1ccc([N+](=O)[O-])cc1)C(Cl)Cl` [Levomicetin], the MIC g/ml is on record as 4.58 ± 0.67^yy g/ml against Staphylococci (setting [3]) and 9.17 ± 0.36^x g/ml against Staphylococci (setting [4]).
For `Cc1onc(-c2ccccc2)c1C(=O)N[C@@H]1C(=O)N2[C@@H]1SC(C)(C)[C@@H]2C(=O)O` [Oxycillin] the same measures were 1.56 ± 0.45^yy g/ml and 5.11 ± 0.63^x g/ml.
For `[H]/N=C(/N)N[C@H]1[C@H](O)[C@@H](O)[C@H](O[C@@H]2O[C@@H](C)[C@](O)(C=O)[C@H]2O[C@@H]2O[C@@H](CO)[C@H](O)[C@@H](O)[C@@H]2NC)[C@@H](N/C(N)=N\[H])[C@@H]1O` [Streptomycin] the same measures were 3.39 ± 0.66^yy g/ml and 6.71 ± 0.59^x g/ml.
On to `c1ccc([C@H]2CN3CCSC3=N2)cc1` [decaris, reference compound], for which, in assay [2], the “disintegration cavities closed, number of patients” value is reported as 10 patients; the “improvement, number of patients” value turned out to be 18; the “no improvement, number of patients” value was 3 patients; the “significant improvement, number of patients” value is on record as “only one case”.
Gentamycin: the results for the MIC g/ml against Staphylococci (setting [3]) and against Staphylococci (setting [4]) were 1.32 ± 0.49^yy g/ml and 5.47 ± 0.92^x g/ml, respectively.
As for Penicillin, the MIC g/ml was 2.52 ± 0.70^yy g/ml in the assay on Staphylococci (setting [3]) and 9.45 ± 0.28^x g/ml in the assay with Staphylococci (setting [4]).
